This note sets out measurements from the METLIN SMRT retention time set (Domingo-Almenara et al. 2019).

A short description of this data set: gradient 5% acetonitrile 3 min, to 50% in 2 min, to 85% in 15 min, held 3 min, 100 µL/min. The following applies: column: Zorbax Extend-C18 2.1 x 50 mm; eluents: water / acetonitrile, 0.1% formic acid. Summed up: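 Retention time was recorded from adduct peaks, which were picked computationally and each inspected manually. Pure standards ran in mixtures of ~100 molecules on HPLC coupled to a quadrupole time-of-flight mass spectrometer, in positive and negative ionization mode, through a Zorbax Extend-C18 column (2.1 × 50 mm, 1.8 μm) at 100 μL/min. Eluents were water and acetonitrile, each with 0.1% formic acid.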
Take `COc1ccc(CNC(=O)c2ccc3c(=O)n(-c4ccc(F)cc4)c(N4CCCC4)nc3c2)cc1`: the RP-LC retention time is 852 s.
The value for `COc1ccc(N2CCN(C(=O)c3cc4cc5cc(OC)ccc5nc4o3)CC2)cc1` was 829 s.
The value for `Cc1noc(-c2cc(=O)n(CC(=O)Nc3ccc(F)c(F)c3)c3ccccc23)n1` was 890 s.
The value for `Cc1cc(C)c2c(N3CCCC3)nc(C(=O)Nc3ccc4c(c3)OCO4)nc2n1` was 656 s; that for `CCCCNC(=O)c1ccc2c(c1)NC(=O)C1CCCCN21` (centres undefined) was 759 s.
Turning to `Cc1c(C(=O)C(=O)N2CCc3ccccc32)c2ccccc2n1C`, the RP-LC retention time stood at 902 s.
With `O=C(Nc1nccs1)c1ccccc1OCc1nc(-c2ccccc2)no1` the figure was 953 s.
The value for `Cc1noc(C)c1Cn1cccc(S(=O)(=O)N2CCCC2)c1=O` was 644 s; that for `Cc1ccc(NC(=O)C2CCN(S(=O)(=O)c3ccc4[nH]c5c(c4c3)CCCCC5)CC2)nc1` was 897 s.
The value for `CCn1nc(C(=O)Nc2cccc3c2C(=O)N(C)C3=O)cc1C` was 856 s; that for `CC1CCc2onc(C(=O)N3CCN(Cc4ccc5c(c4)OCO5)CC3)c2C1` (centres undefined) was 667 s.
Molecule `Cc1ccccc1NC(=O)Cn1nc2nc(N3CCCC(C)C3)ccn2c1=O` (centres undefined) registered an RP-LC retention time of 798 s.
In turn, `Cn1nccc1C(=O)NCc1ccc2c(c1)CCN2C(=O)c1ccc(F)cc1` showed an RP-LC retention time of 779 s.
With `O=C(CSc1nnc2c3sc(N4CCCC4)nc3ncn12)Nc1ccc(F)cc1Cl` the figure was 869 s; with `CC1CCCN(c2ccc(-c3noc(CN(C)C4CCCCC4)n3)cn2)C1` (centres undefined), 721 s.
Regarding `CCC(C)(C)C(=O)NC1CCN(c2cnn(CC3CC3)c(=O)c2)CC1`, the RP-LC retention time is 664 s.
On to `COc1cc(O)ccc1-c1nc2ccc(Br)cn2c1Nc1ccccc1C`, for which the RP-LC retention time came out at 736 s.
The value for `CC1Cc2cc(S(=O)(=O)CCC(=O)N3CCN(Cc4ccccc4)CC3)ccc2N1C(=O)C1CC1` (centres undefined) was 666 s; that for `CCOC(=O)c1nc(Nc2ccc(C(C)C)cc2)c2ccccc2n1` was 1020 s; that for `Cc1ccc(S(=O)(=O)N2CCC3(CC2)CC(C)(O)CCO3)cc1` (centres undefined) was 806 s.
The value for `Cc1ccc(NC(=O)N2CCC(n3cnc4ccc(F)cc4c3=O)CC2)c(C)c1` was 790 s.
With `Cc1ccc(NC(=O)N2CCC(CCN)CC2)cc1F` the figure was 612 s.
In turn, `CCOC(=O)C1CCN(c2cc3c(cc2NC(=O)c2ccco2)n(C)c(=O)n3C)CC1` returned an RP-LC retention time of 904 s.
The value for `COc1ccccc1Cn1c(COc2ccccc2OC)nc2ccccc21` was 726 s; that for `CC(=O)N1c2ccc(S(=O)(=O)N3CCCCCC3)cc2CC1C(=O)NC1CCCCCC1` (centres undefined) was 959 s.
With `COc1ccc(-c2noc(C3CCCN3C(=O)CNC(=O)c3cccs3)n2)cc1` (centres undefined) the figure was 788 s; with `CCOc1ccc2ncc(S(=O)(=O)c3ccc(C)cc3)c(N3CCN(C)CC3)c2c1`, 667 s.
The value for `COc1ccc(N2CCN(Cc3nc(-c4ccc(N5CCCC(C)C5)nc4)no3)CC2)cc1` (centres undefined) was 1020 s; that for `O=C(Cn1ccn2nc(-c3ccccc3)c(CO)c2c1=O)Nc1cc(F)ccc1Cl` was 868 s; that for `CCC(CC)NC(=O)C1CCCCc2nnc(C(C)C)n21` (centres undefined) was 664 s.
As to `O=C(Nc1nccs1)C1CCN(C(=O)c2cccc(-n3cnnn3)c2)CC1`, the RP-LC retention time is 625 s.
With `Cc1ccc(-c2ncc(NC(=O)CC(C)C)cn2)cc1` the figure was 961 s; with `CCc1ccc(NC(=O)N2CCC(n3cnc4c(C)cccc4c3=O)CC2)cc1`, 838 s.
The value for `CC(C)NC(=O)N1CCCC(c2cccc(C(=O)NCc3ccc4c(c3)OCO4)c2)C1` (centres undefined) was 822 s.
Molecule `O=S(=O)(c1cccnc1)N1CCC(c2nnc(-c3ccc(F)cc3)o2)CC1` showed an RP-LC retention time of 734 s.
The value for `Cc1ccc(NC(=O)Cn2nc(N3CCCC(C)C3)c3ccccc3c2=O)cc1` (centres undefined) was 1140 s; that for `CCc1nnc(NC(=O)c2ccc3c(c2)c(=O)cc(C)n3CC)s1` was 571 s; that for `O=C(Cc1nnc(-c2ccc3ncccc3c2)o1)NCc1ccccc1Cl` was 711 s.
The molecule `CCCCN(C)C(=O)c1cnc(-c2ccc(C)cc2)nc1-c1ccncc1` displayed an RP-LC retention time of 968 s.
With `COC(=O)C1=C(C)NC2=C(C(=O)CC(C)(C)C2)C1c1cc(OC)c(OC)c(OC)c1` (centres undefined) the figure was 684 s; with `Cc1noc(CN2CCN(C3CCN(Cc4cc(F)ccc4F)C3)C2=O)n1` (centres undefined), 576 s; with `CC(C)(C)NC(=O)N1CCC(CNC(=O)c2ccsc2)CC1`, 657 s.
The value for `Cc1ccc(Nc2c(-c3cccc(O)c3)nc3cnccn23)cc1Br` was 834 s; that for `COc1ccc(S(=O)(=O)N2CC(F)(F)C[C@H]2c2nnc(C)o2)cc1` was 788 s; that for `COc1ccc(/C=C/c2cc3c(cc2OC)OCCO3)cc1O` was 938 s.
The value for `O=C(Nc1ccc(F)c(Cl)c1)C1CCc2nc(N3CCOCC3)ncc2C1` (centres undefined) was 855 s; that for `Cn1ncc2c3ccccc3n(CCCC(=O)NCCc3c[nH]c4ccccc34)c2c1=O` was 815 s; that for `NC(=O)C1CCN(C(=O)CSc2nc3ccccc3s2)CC1` was 627 s.
`O=C(NCc1cccnc1)c1nc(CCS(=O)(=O)c2ccccc2)no1` displayed an RP-LC retention time of 593 s.
The value for `CCOC(=O)Cc1c(C)nc2cc(-c3ccc(OC)cc3)nn2c1C` was 980 s.
In the case of `Cn1cc(CC(=O)NCc2cc(-c3ccc4c(c3)OCO4)on2)c2ccccc21`, the RP-LC retention time was determined as 813 s.
The value for `Cc1ccc(Cn2cc(-c3noc(C4CCCC4)n3)nn2)cc1` was 1070 s; that for `Cc1ccc2oc(N3CCN(C(=O)c4ccc(-c5noc(C6CC6)n5)cc4)CC3)nc2n1` was 670 s.
With `O=C(Cn1c(=O)cc(C(=O)N2CCCCC2)c2ccccc21)NC1CCCC1` the figure was 697 s; with `CCOc1ccccc1NC(=O)c1csc2c1CCC(C)C2` (centres undefined), 1320 s.
With `CCCNC(=O)c1ncn2c1C(=O)N(CCC)C(C)(C(=O)NCc1ccc(C)cc1)C2` (centres undefined) the figure was 750 s; with `CCc1nccn1Cc1nc(-c2ccc(OC)cc2)no1`, 620 s.
For the molecule `CCOC(=O)c1cccc(N2C=C(C(=O)N3CCCC3)S(=O)(=O)c3ccc(Cl)cc32)c1`, the RP-LC retention time turned out to be 901 s.
With `CN(C)S(=O)(=O)c1ccc(Cl)c(-c2nnc(-c3ccccc3)o2)c1` the figure was 983 s.
